Data: US10730885B1, “Coumarin derivatives” (KING SAUD UNIVERSITY, priority 2019, dated 2020)
Values after ≈ are worked out from the molar mass of the structure shown. Like-named read-outs stand apart in the source and are kept apart here.

Tests used:
[1] = DPPH microplate radical scavenging antioxidant assay; type: biochemical; conditions: for IC50: DPPH, 30 min, mean ± SD (n = 3)
Protocol: The antioxidant activity of the synthesized compounds was measured in terms of hydrogen-donating or radical scavenging ability using the DPPH microplate-based method. Absorbance measurement was obtained using Microplate/cuvette reader (Spectramax M5, Molecular Devices, California, USA). Reference standard compound ascorbic acid was used as the positive control for this assay at concentrations ranging from 1.563 to 200 μg/mL. Test samples were prepared at a starting concentration of 200 μg/mL after mixing with 100 μl of 0.2 mM DPPH methanolic solution. A series of concentrations were tested for the samples in order to determine the 50% inhibitory concentration (IC50). Samples were incubated with DPPH in the dark for 30 min at room temperature (25° C.). The DPPH solution in methanol was prepared daily and stored in a flask covered with aluminum foil. DPPH radicals have an absorption maximum (λmax) at 515 nm, in which the absorbance values were measured and converted into percentage of antioxidant activity.
Methanolic DPPH solution without antioxidant was applied as control and background control was samples in methanol only. IC50 was determined using Graphpad Prism 7 (Graphpad Software Inc. CA, USA). The percentage inhibition was calculated by using the formula:
The assay was carried out in triplicate and performed as much as possible in an area protected against light. The data points are presented as the mean±standard deviation (SD) (n=3).

[2] = test system: Bacillus megaterium ATCC 9885; assay: Agar well diffusion, primary antimicrobial screening; type: cell-based; conditions: for zone of inhibition at 10000 µg/mL: Priestia megaterium, ATCC9885, B. megaterium ATCC 9885, 100 μL of 10 mg/ml in DMSO, 24 h, read-out: Inhibition Diameter Zone BM; for antibacterial activity compared with ciprofloxacin: B. megaterium
Source text: (§1) The newly synthesized compounds were individually tested for their in vitro antimicrobial activity against the standard bacteria strains of American Type Culture Collection (ATCC), namely, Staphylococcus aureus ATCC 29213, Bacillus subtilis ATCC 6633, Bacillus megaterium ATCC 9885 (Gram-positive), Escherichia coli ATCC 2592 and Pseudomonas aeruginosa ATCC 27953 (Gram-negative). In addition, they were microbiologically tested against the locally isolated Saccharomyces cerevisiae (yeast) and the standard strain of Agricultural Research Service Culture Collection (NRRL) of the yeast like pathogenic fungus Candida albicans NRRL Y-477. The primary screening was carried out using the agar well diffusion method using nutrient agar (NA) medium and Sabourand dextrose agar (SDA) medium for pathological tested bacteria and yeast, respectively.
(§2) Antimicrobial tests were carried out by the agar well diffusion method using 100 μL of suspension containing 1×10^8 CFU/mL of pathological tested bacteria and 1×10^6 CFU/ml of yeast spread on NA and SDA, respectively. After the media was cooled and solidified, wells (10 mm in diameter) were made in the solidified agar and loaded with 100 μL of tested compound solution prepared by dissolving 10 mg of the chemical compound in one ml of dimethyl sulfoxide (DMSO). The inculcated plates were then incubated for 24 h at 37° C. for bacteria and yeast. Negative controls were prepared using DMSO employed for dissolving the tested compound. Ciprofloxacin (10 mg/ml) and ketoconazole (10 mg/ml) were used as standard for antibacterial and antifungal activity, respectively. After incubation time, antimicrobial activity was evaluated by measuring the zone of inhibition against the test organisms and compared with that of the standard. Antimicrobial activities were expressed as inhibition diameter zones in millimeters (mm). The experiment was carried out in triplicate and the average zone of inhibition was calculated.

[3] = test system: Bacillus subtilis ATCC 6633; assay: as above; type: cell-based; conditions: for zone of inhibition at 10000 µg/mL: Bacillus subtilis, ATCC6633, B. subtilis ATCC 6633, 100 μL of 10 mg/ml in DMSO, 24 h, read-out: Inhibition Diameter Zone BS; for antibacterial activity compared with reference drug: B. subtilis
Source text: as §1, §2

trypsin = assay: Proteinase inhibitory activity (trypsin/casein); type: biochemical; conditions: for % Inhibition of proteinase activity: 250 μg/ml, mean ± SD (n = 3)
Protocol: For proteinase inhibitory activity, the reaction mixture (2 ml) contained 0.06 mg trypsin, 20 mM Tris HCl buffer (pH 7.4) and 1 ml test sample (250 μg/ml for each compound). The mixture was incubated for 5 min and then 1 ml of 0.8% (w/v) casein was added. The mixture was incubated for an additional 20 min. 1 ml of 10% perchloric acid was added to arrest the reaction. The cloudy suspension was centrifuged, and the absorbance of the supernatant was read at 280 nm. Reference standard compound aspirin was used as the positive control for this assay. The experiment was performed in triplicate. Percentage inhibition of […] was calculated by using the following formula:
[formula] where Acontrol is the absorbance of the control reaction and Atest is the absorbance of the control reaction with sample.

[4] = test system: Saccharomyces cerevisiae (local isolate); assay: Agar well diffusion, primary antimicrobial screening; type: cell-based; conditions: for zone of inhibition at 10000 µg/mL: Saccharomyces cerevisiae, 24 h, read-out: Inhibition Diameter Zone SC; for antimicrobial activity compared with ketoconazole: S. cerevisiae
Source text: as §1, §2

[5] = test system: Candida albicans NRRL Y-477; assay: as above; type: cell-based; conditions: for zone of inhibition at 10000 µg/mL: Candida albicans, NRRLY477, C. albicans NRRL Y-477, 100 μL of 10 mg/ml in DMSO, 24 h, read-out: Inhibition Diameter Zone CA; for antifungal activity compared with reference drug: C. albicans
Source text: as §1, §2

tested microorganisms = assay: Agar well diffusion, summary over the tested microorganisms; type: cell-based; conditions: for antimicrobial activity compared with standard antimicrobials (ciprofloxacin and ketoconazole): against one or more microorganisms
Source text: as §1, §2

[6] = test system: Staphylococcus aureus ATCC 29213; assay: Agar well diffusion, primary antimicrobial screening; type: cell-based; conditions: S. aureus
Source text: as §1, §2

[7] = test system: Escherichia coli ATCC 2592; assay: as above; type: cell-based; conditions: for antibacterial activity compared with ciprofloxacin: E. coli
Source text: as §1, §2

[8] = test system: Pseudomonas aeruginosa ATCC 27953; assay: as above; type: cell-based; conditions: Pseudomonas aeruginosa, ATCC27953; P. aeruginosa ATCC 27953; 100 μL of 10 mg/ml in DMSO, 24 h; read-out: Inhibition Diameter Zone PA
Source text: as §1, §2

[9] = S. cerevisiae local isolate, 100 μL of 10 mg/ml in DMSO

SMILES | IC50 [1] | melting point | zone of inhibition at 10000 µg/mL [5] | % Inhibition of proteinase activity (trypsin) | zone of inhibition at 10000 µg/mL [4, 9] | antimicrobial activity compared with standard antimicrobials (ciprofloxacin and ketoconazole) (tested microorganisms) | antibacterial activity compared with ciprofloxacin [6] | antibacterial activity compared with reference drug [3] | antimicrobial activity compared with ketoconazole [4] | antifungal activity compared with reference drug [5] | also measured
Cc1ccc2oc(=O)c3c(c2c1)OC(N)=C(C(N)=O)C3c1ccco1 (racemic) [Compound 6b, (±)-2-amino-4-(furan-2-yl)-9-methyl-5-oxo-4H,5H-pyrano[3,2-c]chromene-3-carboxamide] | 48.38 ± 4.61 µg/mL (≈ 143 µM) | 202 to 204 °C |  |  |  |  |  |  |  |  | zone of inhibition at 10000 µg/mL [2]: < 15 mm; zone of inhibition at 10000 µg/mL [3]: < 15 mm; in vitro anti-proteinase activity compared with aspirin (trypsin): more potent; % Inhibition of proteinase activity (trypsin; listed as 6h): 49.28 ± 10.93%
Cc1ccc2oc(=O)c3c(c2c1)OC(N=CN(C)C)=C(C#N)C3c1ccco1 (racemic) [Compound 7b, (±)-N′-(3-cyano-4-(furan-2-yl)-9-methyl-5-oxo-4H,5H-pyrano[3,2-c]chromen-2-yl)-N,N-dimethylformimidamide] | — ((—): inactive (IC50 > 200 μg/mL)) | 273 to 275 °C | < 15 mm | 33.17 ± 2.79% |  |  |  |  |  |  | zone of inhibition at 10000 µg/mL [4]: < 15 mm; zone of inhibition at 10000 µg/mL [2]: < 15 mm; zone of inhibition at 10000 µg/mL [3]: < 15 mm
O=C(O)c1cn(C2CC2)c2cc(N3CCNCC3)c(F)cc2c1=O [Ciprofloxacin, reference compound] |  |  | < 15 mm |  | < 15 mm |  |  |  |  |  | 
NS(=O)(=O)c1ccc(NS(=O)(=O)c2c(O)c3cc(Cl)ccc3oc2=O)cc1 [Compound 10a, 6-Chloro-4-hydroxy-2-oxo-N-(4-sulfamoylphenyl)-2H-chromene-3-sulfonamide] | 93.12 ± 0.727 µg/mL (≈ 216 µM) | 245 to 247 °C |  | 18.78 ± 2.05% |  | equal to or higher than the standard antimicrobials | equal to ciprofloxacin | comparable antibacterial activities to the standard |  |  | 
O=c1oc2ccc(Cl)cc2c(O)c1S(=O)(=O)Nc1ccc(S(=O)(=O)Nc2ncccn2)cc1 [Compound 10c, 6-Chloro-4-hydroxy-2-oxo-N-(4-(N-(pyrimidin-2-yl)sulfamoyl)phenyl)-2H-chromene-3-sulfonamide] | 120.12 ± 4.629 µg/mL (≈ 236 µM) | 230 to 232 °C |  |  | 31 mm | equal to or higher than the standard antimicrobials | higher than the control ciprofloxacin | higher than the reference drug | higher than that of the corresponding control drug |  | antibacterial activity compared with ciprofloxacin [2]: comparable to ciprofloxacin; antibacterial activity compared with ciprofloxacin [7]: comparable antibacterial potential
Cc1ccc2oc(=O)c(S(=O)(=O)Nc3ccc(S(=O)(=O)Nc4ncccn4)cc3)c(O)c2c1 [Compound 10d, 4-hydroxy-6-methyl-2-oxo-N-(4-(N-(pyrimidin-2-yl)sulfamoyl)phenyl)-2H-chromene-3-sulfonamide] | 112.19 ± 4.391 µg/mL (≈ 230 µM) | 207 to 209 °C |  | 36.84 ± 4.87% | 32 mm | equal to or higher than the standard antimicrobials | higher than the control ciprofloxacin | higher than the reference drug | higher than that of the corresponding control drug | higher antifungal activity | antimicrobial spectrum (tested microorganisms): broad-spectrum activity against all of the tested microorganisms; antibacterial activity compared with ciprofloxacin [2]: comparable to ciprofloxacin
O=c1oc2ccc(Cl)cc2c(O)c1S(=O)(=O)Nc1ccccc1 [Compound 11a, 6-Chloro-4-hydroxy-2-oxo-N-phenyl-2H-chromene-3-sulfonamide] | 14.51 ± 1.827 µg/mL (≈ 41.2 µM) | 337 to 339 °C |  | 44.7 ± 8.22% |  | equal to or higher than the standard antimicrobials |  |  |  | higher antifungal activity | antioxidant activity ([1]; overview): particularly high antioxidant activity; in vitro anti-proteinase activity compared with aspirin (trypsin): as potent
CC(=O)c1ccc(NS(=O)(=O)c2c(O)c3cc(C)ccc3oc2=O)cc1 [Compound 11f, N-(4-acetylphenyl)-4-hydroxy-6-methyl-2-oxo-2H-chromene-3-sulfonamide] | 35.36 ± 3.265 µg/mL (≈ 94.7 µM) | 231 to 232 °C | < 15 mm | 2.0 ± 1.4% | < 15 mm |  |  |  |  |  | zone of inhibition at 10000 µg/mL [8]: < 15 mm; zone of inhibition at 10000 µg/mL ([7]; Escherichia coli, ATCC2592, E. coli ATCC 2592, 100 μL of 10 mg/ml in DMSO, 24 h, read-out: Inhibition Diameter Zone EC): < 15 mm
Cc1ccc2oc(=O)c(S(=O)(=O)Nc3ccc(C(=O)/C=C/c4ccc(Cl)cc4)cc3)c(O)c2c1 [Compound 12d, (E)-N-(4-(3-(4-chlorophenyl)acryloyl)phenyl)-4-hydroxy-6-methyl-2-oxo-2H-chromene-3-sulfonamide] | — ((—): inactive (IC50 > 200 μg/mL)) | 141 to 143 °C |  | 31.88 ± 3.82% | 32 mm | equal to or higher than the standard antimicrobials | equal to ciprofloxacin | comparable antibacterial activities to the standard | higher than that of the corresponding control drug | higher antifungal activity | antibacterial activity compared with ciprofloxacin [7]: higher antibacterial activity than ciprofloxacin
